According to US5157032A, “Mixed ligand complexes and uses thereof as binding agents and probes to DNA” (The Trustees of Columbia University In The City of New York, priority 1990, dated 1992):
pEC50: −log10 of the molar value. Values joined by “and” are separate entries in the source; they are usually repeats but may differ in a detail not shown here. Identical values can stand only once. “Also recorded” adds a separate entry of the source. Like-named read-outs stand apart in the source and are kept apart here.

Tests used:
[1] = tested on: HIV; assay type: cell-based
Method: The procedure used For testing agents active against (HIV) is designed to detect agents acting at any stage of the virus reproductive cycle. The assay basically involves the killing of T4 lympnocytes by HIV. Small amounts of HIV are added to cells, and at least two complete cycles of virus reproduction are necessary to obtain the required cell killing. […] The system is automated in several ceatures to accomodate large numbers of candidate agents, and is generally designed to detect anti-HIV activity. […]. Also, while every attempt has been made to reduce variability, precise values for EC50, IC50, and Therapeautic Index are not possible. All tests are compared with a positive (AZT-treated) control done at the same time under identical conditions.
(§1) 1. […] lymphocytes (CEM cell line) are exposed to HIV at a virus to cell ratio approximately 0.05, and plated along with noninfected control cells in 96-well microtiter plates.
(§2) 2. Candidate agent is dissolved in dimethyl sulfoxide (unless otherwose instructed), then diluted 1:200 in cell culture medium. Further dilutions (half-log10) are prepared before adding to an equal volume of medium containing either infected or noninfected cells.
(§3) 3. Cultures are incubated at 37° in a 5% carbon dioxide atmosphere for 6 or 7 days.
(§4) 4. The tetrazolium salt, XTT, is added to all wells, and cultures are incubated to allow formazan color development by viable cells.
(§5) 5. Individual wells are analyzed spectrophotometrically to quantitate formazan production, and in addition are viewed microscopically for detection of viable cells and confirmation of protective activity.
(§6) 6. Drug-treated virus-infected cells are compared with drug-treated noninfected cells and with other appropirate controls (untreated infected and untreated noninfected cells, drug-containing wells without cells, etc.) on the same plate.
7. Data are reviewed in comparison with other tests done at the same time, and a determinatin about activity is made.
Several complexes were tested for use as agents active against (HIV). […]
(§7) The Graphic Results Summary Section: FIGS. 23-33 display a plot of Log 10 of the sample's concentration (as μg/mL or molar) against the measured test values expressed as a percentage of uninfected, untreated control values. The solid line connecting the diamond symbols depicts the percentage of surviving HIV-infected cells treated with your sample (at the indicated onccentration) relative to uninfected, untreated cotrols. This line expressed the in-vitro anti-HIV activity of your sample. The dashed line connecting the square symbols depicts the percentage of surviving uninfected cells treated with your sample relative to the same uninfected, untreated controls. This line expresses the in-vitro growth inhibitory properties of your sample. The viral cytophathic effect in this particular experiment is indicated by a dotted reference line. […] Values of this parameter less than 50% are considered acceptable in the current protocol. Reference lines at 0% and 50% are depicted as alternating dots and dashes.

[2] = tested on: CEM cell line (T4 lymphocytes); test: Growth inhibition of uninfected CEM cells in the anti-HIV screen (XTT); assay type: cell-based
Method: as §1, §2, §3, §4, §5, §6, §7

[3] = tested on: calf thymus DNA; test: Equilibrium dialysis of racemic complexes against calf thymus DNA (Scatchard, dialysate CD); assay type: binding; design: Km × 10) equilibrium dialysis (intrinsic binding constant Kb): scale not given here; conditions: for Site size: fit to McGhee and von Hippel equation; for binding affinity for DNA: comparative; for Km × 10) equilibrium dialysis (intrinsic binding constant Kb): 5 mM Tris, 50 mM NaCl, pH 7.5, standard deviation in parentheses
Method: Equilibrium Dialysis: Equlibrium dialysis of the reacemic metal complexes was perforemd against calf-thymus DNA using procedures described previously. (74) The buffer used was 5 mM Tris, 50 mM NaCl at pH 7.5. Samples were agitated on a shaker bath during equilibration which occurred after three to five days, as determined by control samples containing no DNA. After equilibration, volumes of liquid inside and outside the dialysis bags were determined (approximately 1 and 3 mls, respectively) and circular dichroism of the dialysate was meaxured on a Jasco J-40 spectropolarimeter. Final ruthenium concentration inside and outside the bags were measured by visible absorbance. Data anaylsis was performed on a VAX-780 using non-linear least squares analysis.
Equilibrium Dialysis: Equilibrium binding constants for the metal complexes with DNA may be determined classically by equilibrium dialysis. Calf thymus DNA was dialyzed against the series of mixed ligand complexes using a broad range of ruthenium concentrations. […] The results have been plotted according to Scatchard (88), where r is the ratio of bound metal to DNA-phosphate concentration, and cf is the concentration of free metal complex. The data were fit by non-linear least squares analysis to the McGhee and von Hippel equation (8945) governing random non-cooperative binding to a lattice,
where r is the ratio of bound concentration of ruthenium to the concentration of DNA-phosphate, cf is the concentration of ruthenium free in soltuion, Kb the intrinsic binding constant, and the integer /, which measures the degree of anti-cooperativeity, is the size of a binding site in base pairs. The curves shown reflect the best fit after variation of two parameters: the intrinsic binding constant, Kb, and binding stie size, /. For those complexes were cooperatively was observed, the equation (89) incorporating a cooperativity parameter was used.
Equilibrium dialysis experiments additionally offer the opportunity to examine any enantiomeric selectivities associated with binding. After dialysis of the DNA against the racemic mixture, optical activity observed in the dialysate refelects an enrichment in the dialysate in the less favored enantiomer. For most of the complexes, optical activity was found in the dialysate. Values for the extent of enantiomeric selectivity could not be quanitated in the absence of determinations of DE and assignments of absolute configuration. Assuming that the signs of the circular chroism in the ultraviolet ligand bands are the same for the these ligands as that for the parent phenanthroline complex, (90) we have assigned the absolute configuration of these complexes by comparison to spectra for enantiomers of Ru(phen)3^2+ and have compared levels of enantioselectivity qualitatively through measurements of circular dichroic intensity per rutheium bound. Based upon these assumptions, we find enantionmeric selectivities for the polyridyl complexes to reflect an enrichment in the isomer in the dialysate and the preferential binding of the isomer to the right-handed DNA. This observation is consistent with the preferential intercalation of isomers found earlier for Ru(phen)3^2+ in right-handed B-DNA. (63) We may also compare relative enantioselectivities for different ancillary ligands. […] The same comparison may be seen qualitatively between Ru(phen)2 DIP^2+ and Ru(bpy)2 DIP^2+.

[4] = tested on: calf thymus DNA; test: Absorption titration with calf thymus DNA (half-reciprocal, hypochromism); assay type: binding; conditions: in words; for binding to DNA: absorption changes too small for Kb
Text: In plots of [DNA]/(εA -εF) versus [DNA], Kb is given by the ratio of the slope to intercept.

[5] = tested on: calf thymus DNA; test: Spectroscopic properties (absorption, emission, lifetime) on binding to calf thymus DNA; conditions: 7 μM Ru, 40:1 nucleotide/metal, 20° C.
Method: Instrumentation: NMR spectra were recorded on a Varian VXR-300MHz spectormeter. FABS were performed using a VG Analytical 7070EQ Mas Spectrometer (78), and elemental analyses were done by Galbraith Laboratories in Nashville, Tenn. UV-Visible absorbance spectal were recorded on a Varian CARY-219 absorbance spectorphotometer. Extinction coefficients for the compounds were determined versus ruthenium concentrations obtained by atomic absorption spectroscopy with known ruthenium standards. [Ru(bpy)3 ]Cl2 solutions were also employed for these determinations as an internal standard. A varian AA-875 atomic absorption spectrophotometer was used for these determinations.
Emission spectra were measured on a Perkin-Elmer LS-5 fluorescence spectrometer. The samples were excited at their corresponding isosbestic points. All the measurements were made at 20° C. in a thermostatted cuvette holder with 3 nm entrance slit and 10 nm exit slit. Ruthenium solutions employed were 7 μM in concentration and claf thymus DNA was added to a ration of 40:1 nucleotide/metal; ruthenuim-DNA soltuions were allowed to incubate for 15 minutes before enhanced spectra were recorded. The emission enhancement factors were measured by comparing the intensitites at the emission spectral mixima in the absence ad presence of DNA, under similar conditions.
The limunescence lifetime measurements were done on a PRA SPC (single photon countining) spectometer with some minor modifications. The samples were excited with a nitrogen filled tnynratron gated flash lamp and the data were collected using a Tracor Northern 1710 multichannel analyser. The data were then transferred to a PDP-11/03 computer and deconvoluted with PRA software. […] concentrated solution of DNA (5mM DNA-phosphate) in buffer was added to a solution of the metal complex (4 μM) in buffer and allowed to equilibrate. Lifetimes of the samples were measured 0.5 hr after the metal complexes were mixed with DNA. All measurements were made at 20° C. and under air saturated conditions.
Furthermore, for all the complexes, this electronic transition is perturbed on binding to DNA.

[6] = molecular target: pBR322 DNA; test: Unwinding of supercoiled pBR322 DNA (topoisomerase I assay); conditions: for pEC50: read-out: Unwinding concentration, needed to unwind 11 of 22 supercoils, [DNA] 47 μM for phi complexes, 31.5 μM others, 60 min; for Unwinding Angle: per molecule of bound complex
[7] = Table 12, dose 1 of 8, printed 9.14 × 10- μg/ml
[8] = Table 12, dose 2 of 8, printed 1.82 × 10+ μg/ml
[9] = Table 12, dose 3 of 8, printed 3.65 × 10+ μg/ml
[10] = Table 12, dose 4 of 8, printed 7.31 × 10+ μg/ml
[11] = Table 12, dose 5 of 8, printed 1.46 × 10+ μg/ml
[12] = Table 12, dose 6 of 8, printed 2.92 × 10+ μg/ml
[13] = Table 12, dose 7 of 8, printed 5.85 × 10+ μg/ml
[14] = Table 12, dose 8 of 8, printed 1.17 × 10+ μg/ml

## [Rh+3].c1ccc(-c2ccnc3c2ccc2c(-c4ccccc4)ccnc23)cc1.c1ccc(-c2ccnc3c2ccc2c(-c4ccccc4)ccnc23)cc1.c1ccc(-c2ccnc3c2ccc2c(-c4ccccc4)ccnc23)cc1 [Rh(DIP)3]
[1]; [7]
  Infected Culture Response(%): 12.4%
[1]; [8]
  Infected Culture Response(%): 18.5%
[1]; [9]
  Infected Culture Response(%): 64.7%
[1]; [10]
  Infected Culture Response(%): 45.4%
[1]; [11]
  Infected Culture Response(%): -.3%
[1]; [12]
  Infected Culture Response(%): -.9%
[1]; [13]
  Infected Culture Response(%): -1.8%
[1]; [14]
  Infected Culture Response(%): -1.8%
[1]; Tables 6-11, dose 3 of 8, 1.17 × 10- [sic] μg/ml
  Infected Culture Response(%): 8.0%
[1]; in words
  activity in inhibiting the activity of HIV: moderately active
[2]; [7]
  Uninfected Culture Response(%): 92.9%
[2]; [8]
  Uninfected Culture Response(%): 91.8%
[2]; [9]
  Uninfected Culture Response(%): 82.4%
[2]; [10]
  Uninfected Culture Response(%): 55.2%
[2]; [11]
  Uninfected Culture Response(%): -.9%
[2]; [12]
  Uninfected Culture Response(%): -1.6%
[2]; [13]
  Uninfected Culture Response(%): -.7%
[2]; [14]
  Uninfected Culture Response(%): -1.5%
[2]; Tables 2-5, dose 1 of 8, 1.25 × 10- [sic] μg/ml
  Uninfected Culture Response(%): 110.1% and 100.3% and 133.6% and 105.1%
[2]; Tables 2-5, dose 2 of 8, 1.25 × 10- [sic] μg/ml
  Uninfected Culture Response(%): 113.1% and 98.9% and 131.0% and 82.1%
[2]; Tables 2-5, dose 3 of 8, 1.25 × 10- [sic] μg/ml
  Uninfected Culture Response(%): 106.0% and 89.3% and 108.6% and 65.1%
[2]; Tables 2-5, dose 8 of 8, 1.25 × 10+ [sic] μg/ml
  Uninfected Culture Response(%): -6% and -1.6% and -6.8% and -2.1%
[2]; Tables 6-11, dose 1 of 8
  Uninfected Culture Response(%): 101.9% and 100.5% and 96.6% and 96.5% and 100.2% and 101.1%
[2]; Tables 6-11, dose 2 of 8
  Uninfected Culture Response(%): 94.1% and 96.9% and 97.4% and 80.8% and 102.4% and 95.3%
[2]; Tables 6-11, dose 3 of 8
  Uninfected Culture Response(%): 96.8% and 102.2% and 101.8% and 86.9% and 115.3% and 110.6%
[2]; Tables 6-11, dose 4 of 8
  Uninfected Culture Response(%): 95.5% and 100.6% and 98.1% and 98.3% and 121.1% and 108.9%
[2]; Tables 6-11, dose 5 of 8
  Uninfected Culture Response(%): 97.9% and 104.2% and 101.3% and 88.4% and 113.8% and 93.7%

## O=[N+]([O-])c1cc2cccnc2c2ncccc12.O=[N+]([O-])c1cc2cccnc2c2ncccc12.O=[N+]([O-])c1cc2cccnc2c2ncccc12.[Ru+2] [Ru(5-NO2phen)3^2+, [Ru(5-nitrophenanthroline)3)]Cl2]
[3]
  Site size: 8-12 base pairs
[3]; in words
  binding affinity for DNA: bind only poorly to DNA; also recorded: much lower than would be expected based upon their solvent accessible surfaces
[4]
  binding to DNA: bound very weakly

## [Ru+2].c1ccc(-c2ccccn2)nc1.c1ccc(-c2ccccn2)nc1.c1ccc(-c2ccnc3c2ccc2c(-c4ccccc4)ccnc23)cc1 [Ru(bpy)2 (DIP)^2+]
[3]
  Km × 10) equilibrium dialysis (intrinsic binding constant Kb): 1.7(.3) × 10
  Site size: 12-18 base pairs
[4]
  binding to DNA: bound very weakly
[5]
  Emission Enchantment (I/Io): 1.13 I/Io
[6]
  pEC50: 3.77

## N=C1C(=N)c2ccccc2-c2ccccc21.[Ru+2].c1ccc(-c2ccccn2)nc1.c1ccc(-c2ccccn2)nc1 [Ru(bpy)2 (phi)^2+]
[3]
  Km × 10) equilibrium dialysis (intrinsic binding constant Kb): 160.(17) × 10
  Site size: 4 base pairs
[4]
  hypochromism / absorption change on DNA addition: greatest change in absorption
[6]
  Unwinding Angle: 17 degrees
  pEC50: 5.96

## [Ru+2].c1ccc(-c2ccccn2)nc1.c1cnc2c(c1)ccc1cccnc12.c1cnc2c(c1)ccc1cccnc12 [Ru(phen)2 (bpy)^2+]
[3]
  Site size: 5-7 base pairs
[5]
  Emission Enchantment (I/Io): 1.43 I/Io
[6]
  Unwinding Angle: 18 degrees
  pEC50: 4.96

## N=C1C(=N)c2ccccc2-c2ccccc21.N=C1C(=N)c2ccccc2-c2ccccc21.[Ru+2].c1ccc(-c2ccccn2)nc1 [Ru(phi)2 (bpy)^2+]
[3]
  Site size: cooperative
[3]; in words
  aggregation in solution: tend to agfregate in solution
  binding curve type (cooperativity): cooperatiove binding
[3]; in words, listed as Ru(phi) 2 bpy^2+
  binding affinity for DNA: in the range of those for Ru(phen)2phi^2+
[3]; in words, listed as Ru(phi)2 bpy^2+
  binding affinity for DNA: decreased affinity for DNA relative to Ru(bpy)2 ph^2+
[4]
  hypochromism / absorption change on DNA addition: greatest change in absorption
[6]; in words
  unwinding of the helix: lower concentration
[6]
  pEC50: 6.22
